The text below walks through data of the NIST ThermoML archive (doi:10.1016/j.fluid.2007.05.013).

What is called mass density is the mass of a sample divided by its volume. The term vapor or sublimation pressure denotes the pressure of vapour in equilibrium with the condensed phase.

Numbers after ± are expanded uncertainties.

For this data set the following is noted: Liquid; for mass density: 298.15 K, 101.33 kPa.

As for `C1COCO1` [1,3-dioxolane], the mass density came out at 1059 ± 0.9 kg/m3. Moreover, the “vapor or sublimation pressure” value (348.8 K) came out at 101.33 ± 2 kPa.

Turning to `C1COCCO1` [1,4-dioxane], the mass density was determined as 1027.9 ± 0.7 kg/m3. Under “374.47 K”, the “vapor or sublimation pressure” value is given as 101.33 ± 2 kPa.

Consider `C1CCOCC1` [tetrahydropyran], for which the mass density was determined as 878.8 ± 1 kg/m3. Moreover, the “vapor or sublimation pressure” value (361.23 K) was found to be 101.33 ± 2 kPa.

For `C1CCOC1` [tetrahydrofuran], the mass density was found to be 882 ± 0.5 kg/m3. For the same compound, the “vapor or sublimation pressure” value (339.12 K) is recorded as 101.33 ± 2 kPa.

For the compound `CCCCCCCl` [1-chlorohexane], the mass density came to 873.5 ± 1 kg/m3. Under “408.07 K”, the “vapor or sublimation pressure” value is 101.33 ± 2 kPa.
